Data on 4 substances can be found in paper PMC4784888, “Activity Based High-Throughput Screening for Novel O-GlcNAc Transferase Substrates Using a Dynamic Peptide Microarray” (PLoS ONE, 2016).

The subject of one assay is s-OGT. As to the kind of experiment: O-GlcNAcylation on kinase substrate peptide microarray, s-OGT. In kind it is biochemical, human. The conditions noted are these: bacterial lysate containing s-OGT (7 μg/μL), 1 mM UDP-GlcNAc, 50 mM Tris-HCl pH 7.5, 30°C, FITC antibody fluorescence, corrected for signal without UDP-GlcNAc. As to the method:
(§1) Plasmids encoding s-OGT, m-OGT, and nc-OGT are generous gifts from John A. Hanover (National Institute of Health, USA). OGT overexpression was carried out as previously described. All the plasmids were transformed into E.coli BL21 (DE3) competent cells to produce a cell lysate containing OGT for use or for further purification. Briefly, inoculated a single colony into 50 ml of LB broth media containing 50 μg/ml ampicillin and cells were grown overnight at 37°C with vigorous shaking. 50 mL of the start culture was added into 1L LB broth media containing 50 μg/mL ampicillin and it was incubated with shaking at 200 rpm at 37°C until A600 reached 0.4–0.6. After the culture was cooled to room temperature, 0.5 mM IPTG was added into the culture to induce protein expression. After 16 hours, the cells were collected by centrifugation for 10 min at 4000 RPM at 4°C. The pellets were lysed in lysis buffer containing 20 mM Tris-HCl, pH 7.5, 1 mg/mL lysome, 0.1% triton x-100 and complete mini EDTA-free protease inhibitor cocktail on ice for 10 min and the lysate was sonicated until the DNA was completely sheared. After centrifugation for 10 min at 12000 rpm at 4°C, the supernatant was carefully transferred into a clean tube and was ready for the array assay or for further purification. Protein expression was determined by coomassie blue staining and western blotting using an anti-OGT antibody.
(§2) Peptide O-GlcNAcylation was assessed using PamChip 4 microarray chips with a PamStation 12 instrument (Pamgene international, The Netherlands). The OGT enzyme reaction was prepared essentially as described[26] with minor modifications. Briefly, before addition of the enzyme reaction, the microarray was blocked with blocking buffer (1% BSA in TBS). After 30 cycles (2 cycles/min) blocking, the blocking buffer was aspirated and the microarray was incubated with 40 μL of the enzyme reaction containing OGT (lysate or purified), OGT reaction buffer (50 mM Tris—HCl, pH 7.5;1 mM DTT;12.5 mM MgCl2), a 1:1 pre-incubated mixture of anti-O-GlcNAc and FITC conjugated secondary antibody, and the sugar donor UDP-GlcNAc or water as a control for 480 cycles (2 cycles/min) at 30°C. The microarray was run in parallel by pumping the reaction up and down through the porous membrane at every cycle and a tiff image was obtained at every 20 cycles by a CCD camera inside the PamStation. O-GlcNAcylation of each peptide was detected by a fluorescent signal which was produced by an FITC conjugated antibody bound to the O-GlcNAc moiety on the peptide.
(§3) Image analysis was performed using BioNavigator 6 software (Pamgene international, The Netherlands). Briefly, each image was quantified by automated array grid finding and subsequent quantification of signal and local background for each individual spot. In this work, the signal median-minus-background value was used as the quantitative parameter for the O-GlcNAcylation of the peptide.
(§4) Dynamic peptide microarray (PamChip) technology has been successfully and widely used for kinase activities profiling in the last decade. In the present work, we describe, for the first time, the utility of this peptide microarray format for the identification of human OGT activity. Due to the fact that O-GlcNAcylation and phosphorylation may occur at the same or proximal amino acids on the same protein [9], a peptide microarray of 144 peptides derived from different kinase substrates (S1 Appendix) was selected for an initial test. […] O-GlcNAcylation of peptides in each individual spot was detected by a fluorescent signal produced by the FITC labelled antibody recognizing the O-GlcNAcylated amino acids of converted peptides. Kinetic activity was measured through scanning the signal at regular intervals.
(§5) Fig 2 Identification of human OGT substrates from a kinase substrate and nuclear hormone receptor interaction peptide microarray. […]

The test system of the next assay is m-OGT. As to the kind of experiment: O-GlcNAcylation on kinase substrate peptide microarray, m-OGT. The conditions noted are these: bacterial lysate containing m-OGT (7 μg/μL), 1 mM UDP-GlcNAc, 50 mM Tris-HCl pH 7.5, 30°C, FITC antibody fluorescence, corrected for signal without UDP-GlcNAc. Type of assay: biochemical, human. As to the method:
as §1, §2, §3, §4, §5

In another assay the test system is nc-OGT. As to the kind of experiment: O-GlcNAcylation on kinase substrate peptide microarray, nc-OGT. In kind it is biochemical, human. Conditions: bacterial lysate containing nc-OGT (7 μg/μL), 1 mM UDP-GlcNAc, 50 mM Tris-HCl pH 7.5, 30°C, FITC antibody fluorescence, corrected for signal without UDP-GlcNAc. As for the experimental part: as §1, §2, §3, §4, §5

Assay [1] relates to OGT (s-OGT, m-OGT, nc-OGT). As to the kind of experiment: O-GlcNAcylation on kinase substrate peptide microarray, three isoforms taken together. Conditions: kinase substrate microarray; bacterial lysates s-, m-, nc-OGT; 1 mM UDP-GlcNAc. In kind it is biochemical, human. As for the experimental part: as §1, with “The pellets were lysed in lysis buffer containing 20 mM Tris-HCl, pH 7.5, 1 mg/mL lysome, 0.1% triton x-100 and complete mini EDTA-free protease inhibitor cocktail on ice for 10 min and the lysate was sonicated until the DNA was completely sheared.” left out
Peptide O-GlcNAcylation was assessed using PamChip 4 microarray chips with a PamStation 12 instrument (Pamgene international, The Netherlands). […] O-GlcNAcylation of each peptide was detected by a fluorescent signal which was produced by an FITC conjugated antibody bound to the O-GlcNAc moiety on the peptide.
as §3
Dynamic peptide microarray (PamChip) technology has been successfully and widely used for kinase activities profiling in the last decade. […] Kinetic activity was measured through scanning the signal at regular intervals. […]

Assay [2] concerns the target T1, m-OGT (mitochondrial isoform of O-GlcNAc transferase) (human) (UniProt O15294).
T1 sequence: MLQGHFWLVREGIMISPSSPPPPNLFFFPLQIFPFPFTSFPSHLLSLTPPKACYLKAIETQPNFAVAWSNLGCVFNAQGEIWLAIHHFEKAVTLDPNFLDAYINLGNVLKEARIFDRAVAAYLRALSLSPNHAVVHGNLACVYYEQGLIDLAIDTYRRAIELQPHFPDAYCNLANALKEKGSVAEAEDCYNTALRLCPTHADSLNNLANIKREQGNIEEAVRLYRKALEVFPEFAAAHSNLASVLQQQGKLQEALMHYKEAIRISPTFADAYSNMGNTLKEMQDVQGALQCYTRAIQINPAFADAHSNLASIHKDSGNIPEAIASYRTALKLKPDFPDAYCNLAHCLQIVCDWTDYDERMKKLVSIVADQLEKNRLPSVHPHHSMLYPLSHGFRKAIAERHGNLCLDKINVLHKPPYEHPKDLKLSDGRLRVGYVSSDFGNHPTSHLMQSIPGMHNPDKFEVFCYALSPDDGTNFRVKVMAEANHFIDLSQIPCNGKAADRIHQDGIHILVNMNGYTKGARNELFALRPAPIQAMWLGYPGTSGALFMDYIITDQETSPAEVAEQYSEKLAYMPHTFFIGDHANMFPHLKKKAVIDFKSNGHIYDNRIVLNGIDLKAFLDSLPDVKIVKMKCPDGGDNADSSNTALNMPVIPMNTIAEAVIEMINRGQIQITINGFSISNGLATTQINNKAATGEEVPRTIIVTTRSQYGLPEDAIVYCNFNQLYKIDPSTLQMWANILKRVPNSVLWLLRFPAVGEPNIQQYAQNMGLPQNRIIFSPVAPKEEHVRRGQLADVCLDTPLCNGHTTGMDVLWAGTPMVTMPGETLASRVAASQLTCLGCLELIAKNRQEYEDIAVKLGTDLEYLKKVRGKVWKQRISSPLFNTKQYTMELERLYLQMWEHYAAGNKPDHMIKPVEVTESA

For the substance “MLRGRSLSVTSLG [GYS2_1_13, kinase substrate microarray peptide …]”, in the assay with s-OGT, the “OGT isoforms activity, s” value is listed as “P (Signal greater than 5% of the highest signal was defined as positive (P))”. Also, in the assay on m-OGT, the “OGT isoforms activity, m” value is “P (Signal greater than 5% of the highest signal was defined as positive (P))”. In addition, the “OGT isoforms activity, nc” value with nc-OGT is “P (Signal greater than 5% of the highest signal was defined as positive (P))”. Moreover, in assay [1], the “O-GlcNAcylation by all three isoforms OGT” value is “significantly O-GlcNAcylated by all three isoforms OGT”.

Turning to “LSAFRRTSLAGGG [MYPC3_268_280, kinase substrate microarray peptide …]”, the “OGT isoforms activity, s” value with s-OGT was “P (Signal greater than 5% of the highest signal was defined as positive (P))”. Further, in the assay on m-OGT, the “OGT isoforms activity, m” value is on record as “P (Signal greater than 5% of the highest signal was defined as positive (P))”. Also, the “OGT isoforms activity, nc” value in the assay with nc-OGT is on record as “P (Signal greater than 5% of the highest signal was defined as positive (P))”. Moreover, the “O-GlcNAcylation by all three isoforms OGT” value in assay [1] is “significantly O-GlcNAcylated by all three isoforms OGT”.

“RBL-2_410–422 T417A peptide (from UniProt Q08999 410-422)” returned an O-GlcNAcylation of the peptide in solution, UDP-Glo assay (UDP formation) in assay [2] of 20%.

Turning to “RBL-2_410–422 T421A peptide (from UniProt Q08999 410-422)”, the decrease of the O-GlcNAcylation of the immobilised peptide by purified m-OGT (0.2 μg/μL, 1 mM UDP-GlcNAc), peptide microarray, against the control peptide (wild type with C415A) in assay [2] turned out to be 40%.
